{"source": "patent US20250241294A1", "about": "“ITACONATE PRESERVATION SOLUTION” (University Health Network, priority 2024, published 2025)", "key": {"[1]": {"test_system": "Human BEAS-2B bronchial epithelial cells", "assay": "BEAS-2B cold ischemia-reperfusion injury model: confluence by Incucyte imaging", "type": "cell-based", "settings": "for confluence, mean percent difference compared to standard LPD alone: immediately upon reperfusion", "experimental": "(§1) Human BEAS-2B bronchial epithelial cells were cultured until subconfluence in 96-well plates with standard media (DMEM+10% FBS). […] These parameters simulated the real-life environment of standard lung preservation.\n(§2) This was followed by up to 48 h of warm reperfusion at 37° C. in regular cell culture media (at 5% CO2). Regular cell media was used as negative control for the simulated cold ischemia, and regular LPD was used as positive control. Upon switching to LPD, the four different itaconate derivatives in the three different concentrations were assessed and compared to regular LPD and standard media during cold static preservation. Confluence and apoptosis measurements (based on Caspase3/7 dye) were taken by serial imaging in an Incucyte S3 Live Cell imaging device to assess the efficacy of the itaconate-containing solutions in preserving each cell culture.\n(§3) Four different itaconate molecules were tested, each in three different dosages and four replicates: underivatized itaconic acid (ITA) at 5 mM, 7.5 mM, and 10 mM; pH-corrected itaconic acid (NaOH-ITA) at 5 mM, 7.5 mM, and 10 mM; dimethyl itaconate (DI) at 0.125 mM, 0.25 mM, and 0.5 mM; and 4-octyl itaconate (4OI) at 0.125 mM, 0.25 mM, and 0.5 mM. […] Upon switching to LPD, the four different itaconate molecules in the three different concentrations each were assessed and compared to regular LPD (positive control) and standard media (negative control) during cold static preservation. Four replicates for each condition were used.\nFIG. 5D illustrates the cell confluence results of the in vitro phase. T=0 represents the cell confluence reached before the 18-hour period of cold ischemia described with respect to FIG. 5A. Cells were cultured until subconfluence (shown at t=4 h in FIG. 5D), followed by cold ischemia from t=4 h to t=22 h. T=22 h represents the beginning of warm reperfusion as described with respect to FIG. 5A."}, "[2]": {"test_system": "Human BEAS-2B bronchial epithelial cells", "assay": "BEAS-2B cold ischemia-reperfusion injury model: cell morphology", "type": "cell-based", "experimental": "as §1, §2, §3\nFor example, FIG. 6B illustrates the cell morphology of cells exposed to i) LPD (positive control), ii) DMEM (negative control), iii) ITA 10 mM, iv) DI 0.25 mM, and v) 4OI 0.25 mM following cold ischemia. FIG. 6C illustrates the cell morphology of these groups at reperfusion at t=22 h. […] The cells cultured in DMEM (the negative control) died during cold ischemia and were washed away during reperfusion, as shown by a comparison of FIG. 6B to FIG. 6C."}, "pig lungs": {"test_system": "pig lungs", "assay": "Porcine ex vivo lung perfusion (EVLP) model of lung transplantation: lung physiology", "parameters": "species or system Yorkshire pigs", "experimental": "(§4) Lungs were surgically harvested from Yorkshire pigs weighing 31-38 kg. The dimethyl itaconate (DI) 0.25 mM solution was selected for testing in vivo due to positive performance in vitro. The lungs were randomized to be flushed with a flush solution of Low Potassium Dextran (LPD) in two groups, with or without 0.25 mM dimethyl itaconate (DI) (n=4 pairs of lungs per group). For flushing, 2 L of flush solution were administered antegrade, and […] was administered retrograde prior to lung static preservation. Retrograde flush solution was collected in a sterile bag and used to coat the lungs during the preservation period. When appropriate (based on assigned randomization), DI was added to all 3 L of flush solution. Surgical teams were blinded to the intervention.\n(§5) Still referring to FIG. 5C, lungs were subsequently preserved at 4° C. for an extended period of 36 h, then reperfused on EVLP for 6 h. EVLP allows lungs to be ventilated, reperfused to normothermia, and evaluated in an extracorporeal platform. EVLP performance was measured because it strongly correlates with post-transplant, recipient performance. Multiple physiological parameters of lung function were measured, and perfusate and tissue biopsies were collected. The measured physiological parameters included plateau airway pressure, change in partial pressure of oxygen delta PO2 (left atrium PO2—pulmonary artery PO2), static compliance, pulmonary vascular resistance (PVR), total perfusate loss, and wet to dry (W/D) ratios.\n(§6) Statistical analysis was performed with GraphPad prism 9.0 (GraphPad Software, San Diego, CA). Two-way repeated measures ANOVA with Dunn's post-test based on the distribution of data and Mann-Whitney test were used for comparison between groups, when appropriate. Values are presented as mean±SEM unless stated otherwise, and p values <0.05 are considered statistically significant."}, "[3]": {"test_system": "inflammatory cytokines in both tissue and perfusate", "assay": "Porcine EVLP model: cytokine analysis of lung tissue and perfusate", "type": "in vivo, Yorkshire pigs", "settings": "DI 0.25 mM flush vs control", "experimental": "as §4, §5, §6"}, "[4]": {"test_system": "Human bronchiole epithelial cells (BEAS2B)", "assay": "Intracellular free ferrous iron (FerroOrange) after cold storage", "type": "cell-based", "settings": "LPD + 0.25 mM DI vs LPD alone; 24 h at 10° C.; p<0.001", "experimental": "This example aimed to determine whether an organ preservation solution having 0.25 mM dimethyl itaconate (DI) could have anti-ferroptotic properties. Human bronchiole epithelial cells (BEAS2B) were cultured to sub-confluence in standard culture medium (DMEM+10% fetal bovine serum) at 37° C. Upon reaching sub-confluence, the culture medium was aspirated completely, and cells were washed twice with phosphate-buffered saline (PBS) before adding cooled LPD or LPD supplemented with DI at a concentration of 0.25 mM. Cells were then placed in a 10° C. refrigeration unit for 24 hours. […] To measure intracellular iron between treatment groups after storage for 24 h at 10° C., FerroOrange, a fluorescent probe for free ferrous ions (Fe2+), was used according to the manufacturer's protocol (Dojindo Molecular Laboratories, MD, USA).\nA […] FerroOrange solution was prepared in serum-free DMEM. Cells were washed with serum-free DMEM three times before being exposed to FerroOrange solution. The plate was then stored at 37° C. for 30 minutes. Fluorescence was quantified with a Cytation microplate reader (BioTek, VT, USA), with the top reading mode at an excitation wavelength of 543 nm and emission wavelength of 580 nm."}, "[5]": {"test_system": "Human BEAS-2B bronchial epithelial cells", "assay": "BEAS-2B cold ischemia-reperfusion injury model: apoptosis (Caspase3/7 dye)", "type": "cell-based", "settings": "immediately upon reperfusion, p<0.001", "experimental": "as §1\nThis was followed by up to 48 h of warm reperfusion at 37° C. in regular cell culture media (at 5% CO2). Regular cell media was used as negative control for the simulated cold ischemia, and regular LPD was used as positive control. Upon switching to LPD, the four different itaconate derivatives in the three different concentrations were assessed and compared to regular LPD and standard media during cold static preservation. […]\nas §3, with “Four replicates for each condition were used.” left out"}}, "data": [{"compound": "C=C(CC(=O)OCCCCCCCC)C(=O)O", "note": "[4OI, 4-octyl itaconate]", "values": [{"measurement": "cell confluence compared to standard LPD alone or DI", "setting": "[1]; 4OI in LPD, 18 h cold ischemia, reperfusion", "value": "did not perform favorably"}, {"measurement": "cell morphology", "setting": "[2]; 0.25 mM and 0.5 mM 4OI in LPD, 18 h cold ischemia at 4° C., reperfusion", "value": "morphological cell injury to a lower extent"}]}, {"compound": "C=C(CC(=O)OC)C(=O)OC", "note": "[DI, dimethyl itaconate]", "values": [{"measurement": "confluence ranking among tested solutions", "setting": "[1]; DI 0.125 mM", "value": "highest confluence"}, {"measurement": "confluence, mean percent difference compared to standard LPD alone", "setting": "[1]; DI 0.125 mM, CI 2.0-13.7, p<0.01", "value": 7.84, "unit": "%"}, {"measurement": "confluence ranking among tested solutions", "setting": "[1]; DI 0.25 mM", "value": "highest confluence"}, {"measurement": "confluence, mean percent difference compared to standard LPD alone", "setting": "[1]; DI 0.25 mM, CI 12.34-0.14, p<0.05", "value": 6.24, "unit": "%"}, {"measurement": "confluence compared to positive control (LPD)", "setting": "[1]; after 24 h of reperfusion, p<0.001", "value": "differences remained favoring DI"}, {"measurement": "cellular morphology", "setting": "[2]; DI in LPD, 18 h cold ischemia at 4° C., reperfusion (FIG. 6D)", "value": "did not indicate any signs of shrinkage, pyknosis, or karyorrhexis"}, {"measurement": "areas of edema on dorsal lung surface", "setting": "pig lungs; flush LPD with 0.25 mM DI vs LPD, 36 h at 4° C., after 6 h of perfusion", "value": "more pronounced in the control group when compared to the DI group"}, {"measurement": "plateau airway pressures", "setting": "pig lungs; flush LPD+DI 0.25 mM vs LPD, 36 h at 4° C., 6 h EVLP, p<0.0001", "value": "lower"}, {"measurement": "delta PO2 (left atrium PO2—pulmonary artery PO2)", "setting": "pig lungs; flush LPD+DI 0.25 mM vs LPD, 36 h at 4° C., 6 h EVLP, p<0.01", "value": "higher"}, {"measurement": "static compliances", "setting": "pig lungs; flush LPD+DI 0.25 mM vs LPD, 36 h at 4° C., 6 h EVLP, p<0.05", "value": "higher"}, {"measurement": "total perfusate loss", "setting": "pig lungs; flush LPD+DI 0.25 mM vs control, 6 h EVLP, not statistically significant", "value": "trend toward reduced total perfusate loss"}, {"measurement": "wet-to-dry ratios", "setting": "pig lungs; flush LPD+DI 0.25 mM vs control, trend, not statistically significant", "value": "reduced wet-to-dry ratios"}, {"measurement": "IL-6 expression levels in the perfusate", "setting": "[3]; after 6 hours, p<0.05", "value": "significantly reduced"}, {"measurement": "IL-8 expression levels in the perfusate", "setting": "[3]; after 6 hours, p<0.05", "value": "reduced IL-8 expression levels"}, {"measurement": "perfusate expression of TNF-α", "setting": "[3]; after 6 hours, p<0.05", "value": "significantly reduced perfusate expression of TNF-α"}, {"measurement": "IL-10 expression levels in the perfusate", "setting": "[3]; after 6 hours, p<0.05 (FIG. 5M)", "value": "reduced IL-10 expression levels"}, {"measurement": "tissue IL-8 expression", "setting": "[3]; lung tissue, p<0.0001", "value": "reduced tissue IL-8 expression"}, {"measurement": "intracellular iron (FerroOrange fluorescence)", "setting": "[4]", "value": "significantly reduced amount of intracellular iron"}]}, {"compound": "C=C(CC(=O)O)C(=O)O", "note": "[ITA, itaconic acid]", "values": [{"measurement": "confluence over reperfusion", "setting": "[1]; ITA in LPD, over 48 hours of reperfusion at 37° C.", "value": "stable confluence"}, {"measurement": "apoptosis counts compared to positive controls", "setting": "[5]; ITA in LPD", "value": "elevated apoptosis counts"}, {"measurement": "cell morphology", "setting": "[2]; ITA in LPD (10 mM shown), 18 h cold ischemia at 4° C., 50% O2, compared to LPD", "value": "cell shrinkage, nuclear pyknosis (condensation), and start of karyorrhexis (fragmentation), consistent with irreversible cell injury"}]}, {"compound": "C=C(CC(=O)O)C(=O)O", "note": "[NaOH-ITA, itaconic acid]", "values": [{"measurement": "apoptosis counts compared to positive controls", "setting": "[5]; higher concentrations of NaOH-ITA", "value": "elevated apoptosis counts"}, {"measurement": "cell morphology", "setting": "[2]; higher concentrations of NaOH-ITA in LPD, after 18 h cold ischemia at 4° C.", "value": "presented morphological changes"}]}]}
